# Assay results: patent publication US5858684A, “Method of screening calcium receptor-active molecules” (priority 1995, dated 1999)
# Like-named read-outs stand apart in the source and are kept apart here.
# How the values were obtained:
# Format in all cases: cell-based
# [1] = biological target: T1, calcium receptor expressed from bovine parathyroid cell mRNA in Xenopus oocytes (Bos taurus, UniProt P35384); assay: Cl- current in Xenopus oocytes injected with bovine parathyroid mRNA; conditions: 30 μM
# T1 sequence (P35384 20-1085): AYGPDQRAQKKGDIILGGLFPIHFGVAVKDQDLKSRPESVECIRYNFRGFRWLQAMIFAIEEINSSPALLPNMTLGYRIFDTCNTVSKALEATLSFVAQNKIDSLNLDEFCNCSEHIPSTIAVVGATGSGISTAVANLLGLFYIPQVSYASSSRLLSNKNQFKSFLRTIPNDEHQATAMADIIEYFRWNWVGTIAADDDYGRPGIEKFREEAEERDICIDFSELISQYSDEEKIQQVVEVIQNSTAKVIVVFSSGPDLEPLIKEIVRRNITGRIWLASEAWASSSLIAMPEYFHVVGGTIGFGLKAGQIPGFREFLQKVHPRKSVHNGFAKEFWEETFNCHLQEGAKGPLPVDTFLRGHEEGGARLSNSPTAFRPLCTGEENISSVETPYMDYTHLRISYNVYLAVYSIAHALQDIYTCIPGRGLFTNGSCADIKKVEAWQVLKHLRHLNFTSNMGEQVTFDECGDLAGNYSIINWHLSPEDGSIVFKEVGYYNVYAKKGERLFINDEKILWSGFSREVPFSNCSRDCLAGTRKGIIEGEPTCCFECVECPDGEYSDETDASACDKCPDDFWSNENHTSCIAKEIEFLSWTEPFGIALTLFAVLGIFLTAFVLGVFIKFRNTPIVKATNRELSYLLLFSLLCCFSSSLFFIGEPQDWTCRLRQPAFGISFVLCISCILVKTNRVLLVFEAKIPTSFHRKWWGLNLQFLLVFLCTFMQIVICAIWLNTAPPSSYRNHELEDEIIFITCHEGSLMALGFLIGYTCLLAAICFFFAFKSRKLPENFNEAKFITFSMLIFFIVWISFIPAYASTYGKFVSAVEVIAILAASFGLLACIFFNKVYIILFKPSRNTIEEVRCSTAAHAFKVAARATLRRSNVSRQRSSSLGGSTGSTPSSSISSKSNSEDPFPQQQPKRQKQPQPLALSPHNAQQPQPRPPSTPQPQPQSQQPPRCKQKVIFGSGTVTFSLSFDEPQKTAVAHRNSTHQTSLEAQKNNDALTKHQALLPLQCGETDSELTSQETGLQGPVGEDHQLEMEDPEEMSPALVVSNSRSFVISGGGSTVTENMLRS
# Procedure: (§1) Glass capillary tubes (1 mm diameter) were pulled to a fine tip and manually broken to achieve a tip diameter of about 15 μmeters. A droplet of mRNA (1 ng/nl in diethylpyrocarbonate (DEPC)-treated water) was placed onto […]® and drawn into the capillary tube by suction. The capillary tube was then connected to a picospritzer (WPI Instruments) and the volume of the air-pulsed droplets adjusted to deliver 50 ng of mRNA (typically 50 nl). A 35-mm culture dish with a patch of nylon stocking fixed to the bottom was used to secure the oocytes during injection of mRNA into the vegetal pole. The injected oocytes were placed into a 35-mm culture dish containing MBS, 100 μg/ml penicillin and 100 μg/ml streptomycin and incubated at 18° C. for 3 days.
# (§2) Following incubation, an oocyte was placed into a 100-μl plastic chamber and superfused with MBS at a flow rate of 0.5 ml/min using a peristaltic pump. Test molecules or inorganic polycations were added by rapidly moving the tubing into different buffers. Recording and current-passing electrodes were constructed from thin-wall capillary tubing pulled to a resistance of 1-3 Mohms and filled with 3M KCl. […] Currents were recorded directly onto a strip chart recorder.
# [2] = tested on: osteoclast calcium receptor; assay: increase in [Ca2+]i in indo-1-loaded rat osteoclasts
# [3] = tested on: cyclic AMP formation in bovine parathyroid cells
# Procedure: Cells were incubated as above for PTH secretion studies and at the end of the incubation, a 0.15-ml sample was taken and transferred to 0.85 ml of hot (70° C.) water and heated at this temperature for 5-10 minutes. The tubes were subsequently frozen and thawed several times and the cellular debris sedimented by centrifugation. Portions of the supernatant were acetylated and cyclic AMP concentrations determined by radioimmunoassay.
# Each value is the mean±SEM of three experiments.
# [4] = tested on: PTH secretion from bovine parathyroid cells; assay: PTH secretion from bovine parathyroid cells; conditions: bovine parathyroid cells
# Procedure: PTH secretion was measured by first suspending cells in PCB containing 0.5 mM CaCl2 and 0.1% BSA.
# [5] = biological target: T2, calcium receptor expressed from human parathyroid cell mRNA in Xenopus oocytes (Homo sapiens, UniProt P41180); assay: response of Xenopus oocytes injected with human parathyroid mRNA
# T2 sequence (P41180 20-1078): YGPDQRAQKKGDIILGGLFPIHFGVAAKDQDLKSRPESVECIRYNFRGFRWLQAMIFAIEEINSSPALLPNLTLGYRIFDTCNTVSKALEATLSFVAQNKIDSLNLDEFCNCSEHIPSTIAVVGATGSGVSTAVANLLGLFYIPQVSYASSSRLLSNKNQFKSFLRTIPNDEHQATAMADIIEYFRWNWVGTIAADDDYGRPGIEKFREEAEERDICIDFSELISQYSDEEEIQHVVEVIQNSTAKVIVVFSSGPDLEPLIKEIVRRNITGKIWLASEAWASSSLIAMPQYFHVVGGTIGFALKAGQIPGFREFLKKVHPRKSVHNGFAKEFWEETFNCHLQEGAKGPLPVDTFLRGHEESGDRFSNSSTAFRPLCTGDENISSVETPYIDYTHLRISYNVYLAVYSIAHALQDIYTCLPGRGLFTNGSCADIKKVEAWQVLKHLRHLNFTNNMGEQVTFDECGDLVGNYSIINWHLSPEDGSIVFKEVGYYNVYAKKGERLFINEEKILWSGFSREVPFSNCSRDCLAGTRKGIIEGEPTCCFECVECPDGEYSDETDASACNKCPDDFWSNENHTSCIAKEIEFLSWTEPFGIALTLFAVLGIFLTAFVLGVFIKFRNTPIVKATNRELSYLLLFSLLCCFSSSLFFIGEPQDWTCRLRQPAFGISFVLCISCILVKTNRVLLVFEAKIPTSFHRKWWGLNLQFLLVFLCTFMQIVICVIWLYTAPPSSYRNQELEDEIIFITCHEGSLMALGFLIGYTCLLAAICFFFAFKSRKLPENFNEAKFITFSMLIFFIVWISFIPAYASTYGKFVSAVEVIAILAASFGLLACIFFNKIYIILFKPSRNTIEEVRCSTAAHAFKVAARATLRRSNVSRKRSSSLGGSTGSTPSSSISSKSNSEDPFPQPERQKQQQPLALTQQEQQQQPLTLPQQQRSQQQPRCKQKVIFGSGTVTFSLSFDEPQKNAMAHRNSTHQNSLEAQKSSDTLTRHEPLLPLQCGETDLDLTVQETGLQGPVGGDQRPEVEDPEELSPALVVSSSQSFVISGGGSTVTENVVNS
# Procedure: Oocytes were injected with poly(A)^+ -enriched mRNA from human parathyroid tissue (hyperplastic glands from a case of secondary HPT).
# as §1, §2
# Using this screen allows one to test for an action directly on the calcium receptor. Oocytes expressing the calcium receptor also responded to several molecules active on intact parathyroid cells when screened as follows. […] This offers rather compelling evidence showing that these molecules act on the calcium receptor or on some other protein intimately associated with its function.
SMILES,Cl- current [1],block of [Ca2+]i response to 25 mM extracellular Ca2+ [2],increase in [Ca2+]i in osteoclasts [2],"increase in [Ca2+]i in osteoclasts, overall [2]",increase in [Ca2+]i in rat osteoclasts [2],effect on basal [Ca2+]i and on extracellular Ca2+-elicited increase ([2]; 5 mM),"increase in [Ca2+]i in osteoclasts, overall ([2]; listed as neomycin B)",isoproterenol-induced cyclic AMP [3],inhibition of PTH secretion [4],"response of water-injected oocytes ([5]; 10 mM, water-injected control oocytes)",concentration effective in oocytes ([5]; human parathyroid mRNA) [µM],"response of oocytes expressing calcium receptor ([5]; human parathyroid mRNA, listed as Neomycin B)","response of oocytes expressing calcium receptor ([5]; human parathyroid mRNA, listed as neomycin B)"
"COc1cccc([C@@H](C)NCCCc2ccccc2)c1 (single isomer, unassigned) [NPS R-467]",rapid increase in Cl^-,,,,,,,,,,,,
NC[C@@H]1O[C@H](O[C@H]2[C@@H](O)[C@H](O[C@@H]3[C@@H](O)[C@H](N)C[C@H](N)[C@H]3O[C@H]3O[C@H](CN)[C@@H](O)[C@H](O)[C@H]3N)O[C@@H]2CO)[C@H](N)[C@@H](O)[C@@H]1O [Neomycin],,did not block the increase,failed to evoke any increase,none of these caused any large increase,Neither,without effect on basal,fail to evoke increases,depressed isoproterenol-induced increases,inhibited PTH secretion to the same extent,failed to cause any change in the current,100,evoked oscillatory increases,evokes oscillating increases
